The test system of the assay is NLRP3. Kind of assay: THP-1 cells pyroptosis assay (LPS/nigericin, resazurin read-out). It counts as cell-based. The conditions noted are these: Homo sapiens. As to the method:
THP-1 cells (ATCC #TIB-202) were grown in RPMI containing L-glutamine (Gibco #11835) supplemented with 1 mM sodium pyruvate (Sigma #S8636) and penicillin (100 units/ml)/streptomycin (0.1 mg/ml) (Sigma #P4333) in 10% Fetal Bovine Serum (FBS) (Sigma #F0804). The cells were routinely passaged and grown to confluency (˜10^6 cells/ml). On the day of the experiment, THP-1 cells were harvested and resuspended into RPMI medium (without FBS). The cells were then counted and viability (>90%) checked by Trypan blue (Sigma #T8154). Appropriate dilutions were made to give a concentration of 625,000 cells/ml. To this diluted cell solution was added LPS (Sigma #L4524) to give a 1 μg/ml Final Assay Concentration (FAC). 40 μl of the final preparation was aliquoted into each well of a 96-well plate. The plate thus prepared was used for compound screening.
The following method step-by-step assay was followed for compound screening. • 1. Seed THP-1 cells (25,000 cells/well) containing 1.0 μg/ml LPS in 40 μl of RPMI medium (without FBS) in 96-well, black walled, clear bottom cell culture plates coated with poly-D-lysine (VWR #734-0317) • 2. Add 5 μl compound (8 points half-log dilution, with 10 μM top dose) or vehicle (DMSO 0.1% FAC) to the appropriate wells • 3. Incubate for 3 hrs at 37° C., 5% CO2 • 4. Add 5 μl nigericin (Sigma #N7143) (FAC 5 μM) to all wells • 5. Incubate for 1 hr at 37° C., 5% CO2 • 6. At the end of the incubation period, spin plates at 300×g for 3 mins and remove supernatant • 7. Then add 50 μl of resazurin (Sigma #R7017) (FAC 100 μM resazurin in RPMI medium without FBS) and incubate plates for a further 1-2 hrs at 37° C. and 5% CO2 • 8. Plates were read in an Envision reader at Ex 560 nm and Em 590 nm • 9. IC50 data is fitted to a non-linear regression equation (log inhibitor vs response-variable slope 4-parameters) 96-Well Plate Map
Background: Alamar Blue is a resazurin reagent that responds to reducing activity.

The mark [1] stands for this setting: THP-1 cells, 1 μg/ml LPS, 3 hrs compound, 5 μM nigericin 1 hr, NLRP3 inhibitory activity, read-out: THP IC50.

The text below walks through data of US12168653B2, “Sulfonamide derivates as NLRP3 inhibitors” (Inflazome Limited, priority 2018, dated 2024).

Counter-ions that a name gives are not always drawn. Like-named read-outs stand apart in the source and are kept apart here. Some results are limits rather than exact numbers.

A word on the IC50: it is the concentration at which inhibition is half-maximal. On to `COc1cc(-c2cc(F)cc(C(C)C)c2CC(=O)NS(=O)(=O)CC2(C#N)CCCCC2)ccn1` [Example 11], for which the IC50 under setting [1] is less than 1 µM. The same measure, in the same setting: with `CC(C)c1cc(F)cc(C(C)C)c1CC(=O)NS(=O)(=O)N(C)C1CCN(C)C1` (centres unmarked) [Example 5, 2-(4-Fluoro-2,6-diisopropylphenyl)-N—(N-methyl-N-(1-methylpyrrolidin-3-yl)sulfamoyl)acetamide] the figure was less than 5 µM; with `CCN(CC)CCCS(=O)(=O)NC(=O)Cc1c2c(cc3c1CCC3)CCC2` [Example 4, N-((3-(Diethylamino)propyl)sulfonyl)-2-(1,2,3,5,6,7-hexahydro-s-indacen-4-yl)acetamide], less than 10 µM. In the case of `COc1cc(-c2cc(F)cc(C(C)C)c2CC(=O)NS(=O)(=O)C[C@@]23CC[C@@H](C[C@H]2O)C3(C)C)ccn1` [Example 9, 2-(4-Fluoro-2-isopropyl-6-(2-methoxypyridin-4-yl)phenyl)-N-((((1R,2R,4S)-2-hydroxy-7,7-dimethylbicyclo[2.2.1]heptan-1-yl)methyl)sulfonyl)acetamide, Potassium Salt], the IC50 (THP-1, read-out: THP IC50) is less than 5 µM. Same read-out and setting: with `CCN(CC)CCCS(=O)(=O)NC(=O)Cc1c(-c2ccnc(OC)c2)cc(F)cc1C(C)C` [Example 3, N-((3-(Diethylamino)propyl)sulfonyl)-2-(4-fluoro-2-isopropyl-6-(2-methoxypyridin-4-yl)phenyl)acetamide, Potassium Salt] the figure was less than 5 µM.

Take `CCN(CC)CCCS(=O)(=O)NC(=O)Cc1c(-c2ccnc(OC)c2)ccc2c1CCC2` [Example 2, N-((3-(Diethylamino)propyl)sulfonyl)-2-(5-(2-methoxypyridin-4-yl)-2,3-dihydro-1H-inden-4-yl)acetamide]: under setting [1], the IC50 was less than 10 µM.

Consider `COc1cc(-c2cc(F)cc(C(C)C)c2CC(=O)NS(=O)(=O)C[C@]23CCC(CC2=O)C3(C)C)ccn1` [Example 7, N-((((1S)-7,7-Dimethyl-2-oxobicyclo[2.2.1]heptan-1-yl)methyl)sulfonyl)-2-(4-fluoro-2-isopropyl-6-(2-methoxypyridin-4-yl)phenyl)acetamide, Potassium Salt], for which the IC50 (THP-1, read-out: THP IC50) was less than 10 µM. On the same count and under the same terms, with `COc1cc(-c2cc(F)cc(C(C)C)c2CC(=O)NS(=O)(=O)CCCC(C)(C)O)ccn1` [Example 10, 2-(4-Fluoro-2-isopropyl-6-(2-methoxypyridin-4-yl)phenyl)-N-((4-hydroxy-4-methylpentyl)sulfonyl)acetamide, Potassium Salt] the figure was less than 10 µM. Same read-out and setting: with `COc1cc(-c2cc(F)cc(C(C)C)c2CC(=O)NS(=O)(=O)N(C)C2CCN(C)C2)ccn1` (centres unmarked) [Example 8, 2-(4-Fluoro-2-isopropyl-6-(2-methoxypyridin-4-yl)phenyl)-N—(N-methyl-N-(1-methylpyrrolidin-3-yl)sulfamoyl)acetamide, Potassium Salt] the figure was less than 5 µM; with `COc1cc(-c2ccc3c(c2CC(=O)NS(=O)(=O)N(C)C2CCN(C)C2)CCC3)ccn1` (centres unmarked) [Example 1, 2-(5-(2-Methoxypyridin-4-yl)-2,3-dihydro-1H-inden-4-yl)-N—(N-methyl-N-(1-methylpyrrolidin-3-yl)sulfamoyl)acetamide, Potassium Salt], less than 5 µM. As to `CCN(CC)CCCS(=O)(=O)NC(=O)Cc1c(C(C)C)cc(F)cc1C(C)C` [Example 6, N-((3-(Diethylamino)propyl)sulfonyl)-2-(4-fluoro-2,6-diisopropylphenyl)acetamide], the IC50 under setting [1] is less than 10 µM.
